In patent publication EP0033503A2, “Medicaments with cytostatic activity and use of cyclic compounds, in which the heterocyclic N-ring atoms are substituted by several glycidyl groups, in pharmaceutical compositions” (Henkel Kommanditgesellschaft auf Aktien, priority 1980, dated 1981):
Read-outs that look alike come from different tables or passages of the source.

Test system: Tumorart P 388 (Leukämie)
Assay: Survival of mice bearing P 388 leukemia (NCI protocol 1200), T/C
Type: in vivo, Maus
Conditions: for response vs control in vivo at 50 mg/kg / response vs control in vivo at 100 mg/kg / response vs control in vivo at 200 mg/kg / response vs control in vivo at 25 mg/kg: Mus musculus; for Testergebnis in % T/C: repeat experiment; for Verlängerungsrate T/C: 9 injections; for T/C-Wert: unit not given
From the text: Die nachfolgenden Versuche wurden durchgeführt nach Testvorschriften des National Cancer Institute Bethesda, Maryland 200014, veröffentlicht in Cancer Chemotherapy Reports" Part. 3, September 1972, Vol. 3, Nr. 2. Als Wirksubstanz wurde 1,3-Diglycidyl-benzimidazolon des i vorstehenden Beispiels 1 verwendet. Die Substanz wurde als wäßrige, 1%ige Injektionslösung unmittelbar vor der Applikation frisch hergestellt.
Bei Mäusen wurde gemäß Protokoll 1200 (Seite 91, c.) die Tumorart P 388 (Leukämie) i.p. mit 10^6 Zellen/Maus gesetzt. Die unbehandelten Tiere hatten eine mittlere überlebensdauer von 9,9 Tagen.
Es wird der Wirkstoff appliziert. Der Wirkstoff wird dabei in 9.Gaben in unterschiedlichen Versuchsreihen einmal zu je 200 mg/kg und in einer anderen zu 100 mg/kg und in einer dritten Versuchsreihe zu je 50 mg/kg verabreicht. In beiden Fällen wird eine signifikante Verlängerung der Lebensdauer der behandelten Testtiere gegenüber der Kontrollgruppe der nicht behandelten Tiere erzielt. […] Bei der Testgruppe mit der Dosis von 100 mg/kg beträgt die durchschnittliche Lebenserwartung der Versuchstiere 18 Tage, T/C 181 %. Die Gruppe mit der Dosis 50 mg/kg hatte eine durchschnittliche Lebenserwartung von 15,3 Tagen, T/C 154 %. […]

[1] = P388, read-out: Verlängerungsrate T/C (Testergebnis in % T/C), 50 mg/kg per single dose, 9 doses, first test series
[2] = P388, read-out: Verlängerungsrate T/C (Testergebnis in % T/C), 100 mg/kg per single dose, 9 doses, first test series
[3] = 50 mg/kg per single dose, 9 doses
[4] = 100 mg/kg per single dose, 9 doses
[5] = 200 mg/kg per single dose, 9 doses
[6] = P388, 50 mg/kg per single dose, first series, unit inferred, read-out: Testergebnis T/C (T/C-Wert)
[7] = P388, 100 mg/kg per single dose, first series, unit inferred, read-out: Testergebnis T/C (T/C-Wert)
[8] = P388, 200 mg/kg per single dose, first series, unit inferred, read-out: Testergebnis T/C (T/C-Wert)
[9] = P388, 100 mg/kg per single dose, 9 doses, first test series, read-out: Verlängerungsrate T/C (Testergebnis in % T/C)
[10] = P388, 200 mg/kg per single dose, 9 doses, first test series, read-out: Verlängerungsrate T/C (Testergebnis in % T/C)
[11] = P388, 50 mg/kg per single dose, 9 doses, first test series, read-out: Verlängerungsrate T/C (Testergebnis in % T/C)
[12] = P388, read-out: Testergebnis T/C (T/C-Wert), 25 mg/kg, second series, unit inferred
[13] = P388, read-out: Testergebnis T/C (T/C-Wert), 50 mg/kg per single dose, first series, unit inferred
[14] = P388, read-out: Testergebnis T/C (T/C-Wert), 50 mg/kg, second series, unit inferred
[15] = P388, read-out: Testergebnis T/C (T/C-Wert), 100 mg/kg per single dose, first series, unit inferred
[16] = P388, read-out: Testergebnis T/C (T/C-Wert), 100 mg/kg, second series, unit inferred
[17] = P388, read-out: Testergebnis T/C (T/C-Wert), 200 mg/kg, second series, unit inferred

O=c1c2c(ncn2CC2CO2)n(CC2CO2)c(=O)n1CC1CO1 (centres unmarked) [Beispiel 23, 1,3,7-Triglycidyl-xanthin]
response vs control in vivo at 50 mg/kg [1]: 147%
response vs control in vivo at 100 mg/kg [2]: 147%
response vs control in vivo at 200 mg/kg (P388, read-out: Verlängerungsrate T/C (Testergebnis in % T/C), 200 mg/kg per single dose, 9 doses, first test series): 173%

Diglycidyl-butylglykoluril [Beispiel 4]
durchschnittliche Lebenserwartung der Versuchstiere [3]: 16,3 Tage
Verlängerungsrate T/C (Testergebnis in % T/C) (50 mg/kg per single dose, 9 doses, first test series): 164%
durchschnittliche Lebenserwartung der Versuchstiere [4]: 19,3 Tage
Verlängerungsrate T/C (Testergebnis in % T/C) (100 mg/kg per single dose, 9 doses, first test series): 194%
durchschnittliche Lebensdauer der Testgruppe [5]: 27 Tage
Verlängerungsrate T/C (Testergebnis in % T/C) (200 mg/kg per single dose, 9 doses, first test series): 272%
Versuchstiere, die die Testdauer von 30 Tagen überleben (200 mg/kg per single dose, test group of 6 female mice): ein Versuchstier

O=c1c(I)cn(CC2CO2)c(=O)n1CC1CO1 (centres unmarked) [Diglycidyl-5-joduracil, N,N'-Diglycidyl-5-ioduracil]
response vs control in vivo at 50 mg/kg [6]: 124%
response vs control in vivo at 100 mg/kg [7]: 166%
response vs control in vivo at 200 mg/kg [8]: 189%

O=c1ccn(CC2CO2)c(=O)n1CC1CO1 (centres unmarked) [Beispiel 13, N,N'-Diglycidyluracil]
durchschnittliche Lebenserwartung der Versuchstiere [4]: 16,0 Tage
Testergebnis in % T/C (100 mg/kg): 152%
durchschnittliche Lebensdauer der Testgruppe [5]: 24 Tage
Testergebnis in % T/C (200 mg/kg): 198%
response vs control in vivo at 25 mg/kg (P388, 25 mg/kg, second series, unit inferred, read-out: Testergebnis T/C (T/C-Wert)): 114%
response vs control in vivo at 50 mg/kg [6]: 131%
response vs control in vivo at 50 mg/kg (P388, 50 mg/kg, second series, unit inferred, read-out: Testergebnis T/C (T/C-Wert)): 124%
response vs control in vivo at 100 mg/kg [9]: 153%
response vs control in vivo at 100 mg/kg [7]: 156%
response vs control in vivo at 100 mg/kg (P388, 100 mg/kg, second series, unit inferred, read-out: Testergebnis T/C (T/C-Wert)): 152%
response vs control in vivo at 200 mg/kg [10]: 230%
response vs control in vivo at 200 mg/kg [8]: 230%
response vs control in vivo at 200 mg/kg (P388, 200 mg/kg, second series, unit inferred, read-out: Testergebnis T/C (T/C-Wert)): 198%

O=C1N(CC2CO2)C(=O)C(c2ccccc2)(c2ccccc2)N1CC1CO1 (centres unmarked) [R5 C6H5-R6 C6H5-, Diglycidyl-diphenylhydantoin]
Testergebnis in % T/C (100 mg/kg): 136%
Testergebnis in % T/C (200 mg/kg): 149%
response vs control in vivo at 100 mg/kg [9]: 122%
response vs control in vivo at 200 mg/kg [10]: 130%

CCCCCC(=O)c1ccc2c(c1)n(CC1CO1)c(=O)n2CC1CO1 (centres unmarked) [R2 -H R3 -C-C5H11 " O, N,N-Diglycidyl-5-caproyl-benzimidazolon]
response vs control in vivo at 50 mg/kg [11]: 167%
response vs control in vivo at 100 mg/kg [9]: 198%
response vs control in vivo at 200 mg/kg [10]: 130%

O=c1cnn(CC2CO2)c(=O)n1CC1CO1 (centres unmarked) [Beispiel 20, 2,4-Diglycidyl-2,3,4,5-tetrahydro-1,2,4-triazin-3,5-dion]
response vs control in vivo at 50 mg/kg [6]: 189%
response vs control in vivo at 100 mg/kg [7]: 228%

O=c1n(CC2CO2)c2ccc(Cl)cc2n1CC1CO1 (centres unmarked) [R2 -H R3 -Cl, N,N'-Digylcidyl-5-chlor-benzimidazolon]
Testergebnis in % T/C (25 mg/kg): 156%
Testergebnis in % T/C (50 mg/kg): 181%
Testergebnis in % T/C (100 mg/kg): 92%
Testergebnis in % T/C (12,5 mg/kg): 145%
response vs control in vivo at 50 mg/kg [1]: 191%
response vs control in vivo at 100 mg/kg [2]: 234%

O=c1ccn(CC2CO2)c(=O)n1Cn1c(=O)ccn(CC2CO2)c1=O (centres unmarked) [[drawing] the 18th table r17]
response vs control in vivo at 50 mg/kg [6]: 115%
response vs control in vivo at 100 mg/kg [7]: 139%
response vs control in vivo at 200 mg/kg [8]: 186%

COc1ccc2c(c1)n(CC1CO1)c(=O)n2CC1CO1 (centres unmarked) [R2 -H R3 -O-CH3, N,N-Diglycidyl-5-methoxy-benzimidazolon]
response vs control in vivo at 50 mg/kg [11]: 175%
response vs control in vivo at 100 mg/kg [9]: 225%

O=c1c2cc3c(=O)n(CC4CO4)c(=O)c3cc2c(=O)n1CC1CO1 (centres unmarked) [Beispiel 16, N,N^I-Diglycidylbenzoltetracarbonsäure-(1,2,4,5,)diimid]
Verlängerungsrate T/C (6,25 mg/kg per single dose): 156%
Verlängerungsrate T/C (12,5 mg/kg per single dose): 200%

O=c1n(CC2CO2)c2ccccc2n1CC1CO1 (centres unmarked) [Beispiel 1, N,N'-Digylcidyl-Benzimidazolon]
Testergebnis in % T/C (25 mg/kg): 133%
durchschnittliche Lebenserwartung der Versuchstiere [3]: 15,3 Tage
Testergebnis in % T/C (50 mg/kg): 136%
durchschnittliche Lebenserwartung der Versuchstiere [4]: 18 Tage
Testergebnis in % T/C (100 mg/kg): 161%
durchschnittliche Lebensdauer der Testgruppe [5]: 20 Tage
Testergebnis in % T/C (200 mg/kg): 166%
response vs control in vivo at 50 mg/kg [11]: 154%
response vs control in vivo at 100 mg/kg [9]: 181%
response vs control in vivo at 200 mg/kg [10]: 202%

CC1(C)C(=O)N(CC2CO2)C(=O)N1CC1CO1 (centres unmarked) [1,3-Diglycidyl-5,5-dimethylhydantoin]
Testergebnis in % T/C (25 mg/kg): 136%
durchschnittliche Lebenserwartung der Versuchstiere [3]: 15,7 Tage
Testergebnis in % T/C (50 mg/kg): 151%
durchschnittliche Lebenserwartung der Versuchstiere [4]: 22 Tage
Testergebnis in % T/C (100 mg/kg): 239%
response vs control in vivo at 50 mg/kg [11]: 158%
response vs control in vivo at 100 mg/kg [9]: 222%
erhöhte Lebenserwartung gegenüber einer Kontrollgruppe nicht behandelter Versuchstiere (animal test at 100 mg/kg and 50 mg/kg): ≤ 220%

CC1(c2ccccc2)C(=O)N(CC2CO2)C(=O)N1CC1CO1 (centres unmarked) [R5 CH3-R6 C6H5-, Diglycidyl-5-phenyl-5-methyl-hydantoin]
response vs control in vivo at 50 mg/kg [11]: 100%
response vs control in vivo at 100 mg/kg [9]: 160%
response vs control in vivo at 200 mg/kg [10]: 250%

CC(C)CC1C(=O)N(CC2CO2)C(=O)N(CC2CO2)C1=O (centres unmarked) [Beispiel 11, 1,3-Diglycidyl-5-isobutylbarbitursäure]
response vs control in vivo at 25 mg/kg [12]: 129%
response vs control in vivo at 50 mg/kg [13]: 133%
response vs control in vivo at 50 mg/kg [14]: 158%
response vs control in vivo at 100 mg/kg [15]: 158%
response vs control in vivo at 100 mg/kg [16]: 184%
response vs control in vivo at 200 mg/kg (P388, read-out: Testergebnis T/C (T/C-Wert), 200 mg/kg per single dose, first series, unit inferred): 194%
response vs control in vivo at 200 mg/kg [17]: 252%

O=c1n(CC2CO2)c(=O)n(CC2CO2)n1CC1CO1 (centres unmarked) [Beispiel 26, 1,2,4-Triglycidylurazol]
T/C-Wert (25 mg/kg per single dose): >260
T/C-Wert (6,25 mg/kg per single dose): 180
T/C-Wert (12,5 mg/kg per single dose): 230
response vs control in vivo at 50 mg/kg [6]: 298%

CCC1(CC)C(=O)N(CC2CO2)C(=O)N(CC2CO2)C1=O (centres unmarked) [Beispiel 10, 1,3-Diglycidyl-5,5-diethylbarbitursäure]
durchschnittliche Lebenserwartung der Versuchstiere [3]: 15,3 Tage
durchschnittliche Lebenserwartung der Versuchstiere [4]: 22 Tage
response vs control in vivo at 25 mg/kg [12]: 94%
response vs control in vivo at 50 mg/kg [13]: 147%
response vs control in vivo at 50 mg/kg [14]: 111%
response vs control in vivo at 100 mg/kg [15]: 211%
response vs control in vivo at 100 mg/kg [16]: 158%
response vs control in vivo at 200 mg/kg [17]: 230%
response vs control in vivo at 50 mg/kg [1]: 147%
response vs control in vivo at 100 mg/kg [2]: 211%

O=c1c(F)cn(CC2CO2)c(=O)n1CC1CO1 (centres unmarked) [Diglycidyl-5-floururacil, N,N'-Diglycidyl-5-fluoruracil]
response vs control in vivo at 50 mg/kg [6]: 179%
response vs control in vivo at 100 mg/kg [7]: 300%

O=c1c(Br)cn(CC2CO2)c(=O)n1CC1CO1 (centres unmarked) [Diglycidyl-5-bromuracil, N,N'-Diglycidyl-5-bromuracil]
response vs control in vivo at 50 mg/kg [6]: 173%
response vs control in vivo at 100 mg/kg [7]: 193%

CCC1(c2ccccc2)C(=O)N(CC2CO2)C(=O)N1CC1CO1 (centres unmarked) [R5 CH3-CH2-R6 C6H5-, Diglycidyl-5-phenyl-5-ethylhydantoin]
Testergebnis in % T/C (50 mg/kg): 111%
Testergebnis in % T/C (100 mg/kg): 146%
Testergebnis in % T/C (200 mg/kg): 188%
response vs control in vivo at 50 mg/kg [11]: 125%
response vs control in vivo at 100 mg/kg [9]: 156%
response vs control in vivo at 200 mg/kg [10]: 222%

O=c1n(-c2ccccc2)c(=O)n(CC2CO2)n1CC1CO1 (centres unmarked) [Beispiel 27, 1,2-Diglycidyl-4-phenylurazol]
T/C-Wert (25 mg/kg per single dose): 120
response vs control in vivo at 50 mg/kg [6]: 120%
response vs control in vivo at 100 mg/kg [7]: 150%
response vs control in vivo at 200 mg/kg [8]: 200%
